Source: patent US12559488B2, “Substituted morpholines as ATR kinase inhibitors” (JIANGSU HENGRUI MEDICINE CO., LTD., priority 2019, dated 2026)

Key:
ATR enzyme = biological target: T1, ATR enzyme (Homo sapiens, UniProt Q13535); experiment: Inhibitory effect on ATR enzyme (phospho-p53 HTRF); type: biochemical; settings: for IC50: 1 nM ATR enzyme, 50 nM P53 protein, 7.435 μM ATP, 2 h room temperature, read-out: IC50 for ATR enzyme inhibition; for Maximum inhibition (%) of ATR enzyme: compound serially 3-fold diluted from 1 μM
T1 construct: purchased Eurofins Pharma Discovery Services 14-953-M
Text: The following method was used to determine the inhibitory effect of the compounds disclosed herein on ATR enzyme. The experimental methodology is briefly described as follows:
• 1. ATR enzyme (Eurofins Pharma Discovery Services, 14-953-M) • 2. GST-tag P53 protein (Eurofins Pharma Discovery Services, 14-952-M) • 3. 384-well plate (Thermo Scientific, 267462) • 4. U-shaped bottom 96-well plate (Corning, 3795) • 5. MAb Anti-phospho p53-Eu cryptate (Cisbio, 61P08KAE) • 6. MAb Anti GST-d2 (Cisbio, 61GSTDLF) • 7. ATP solution (Promega, V916B) • 8. EDTA (Thermo Scientific, AM9260G) • 9. HEPES (Gibco, 15630-080) • 10. Microplate reader (BMG, PHERAsta)
1 nM ATR enzyme, 50 nM P53 protein, 7.435 μM ATP and small molecule compounds of different concentrations (serially 3-fold diluted from 1 μM to the 11th concentration) were mixed and incubated at room temperature for 2 h. A terminating buffer (12.5 mM HEPES, 250 mM EDTA) was added. The mixture was well mixed before 0.42 ng/well of mAb anti-phospho p53-Eu cryptate and 25 ng/well of mAb anti GST-d2 were added. The mixture was incubated overnight at room temperature, and the fluorescence signals at 620 nm and 665 nm were detected using a PHERAstar system. Data were processed using GraphPad software.

LoVo cells = experiment: LoVo cell proliferation assay (intracellular ATP content, CellTiter-Glo); type: cell-based; settings: LoVo human colon cancer cells, 3 days incubation; for IC50: 72 h, read-out: IC50 for LoVo cell proliferation inhibition
Text: The following method evaluates the inhibitory effect of the compounds disclosed herein on the proliferation of LoVo cells via IC50 by measuring the intracellular ATP content. The experimental methodology is briefly described as follows:
• 1. LoVo, human colon cancer cells (Cobioer, Nanjing, CBP60032) • 2. Fetal bovine serum (FBS) (Gibco, 10091-148) • 3. F-12K Medium (Gibco, 21127030) • 4. CellTite-Glo reagent (Promega, G7573) • 5. 96-well cell culture plate (Corning, 3903) • 6. Pancreatin (Invitrogen, 25200-072) • 7. Microplate reader (BMG, PHERAstar) • 8. Cell counter (Countstar, Shanghai, IC1000)
LoVo cells were cultured in an F-12K culture medium containing 10% of FBS, and passaged twice or thrice a week in a passage ratio of 1:3 or 1:5. During passage, cells were digested by pancreatin, transferred to a centrifuge tube, and centrifuged for 3 min at 1200 rpm. The supernatant was discarded, and fresh culture medium was added to resuspend the cells. To a 96-well cell culture plate, 90 μL of the cell suspension was added at a density of 3.88×10^4 cells/mL. To peripheral wells of the 96-well plate, only 100 μL of complete medium was added. The plate was incubated in an incubator for 24 h (37° C., 5% CO2).
The test samples were diluted to 2 mM in DMSO and serially 3-fold diluted to the 10th concentration. Blank and control wells were set. 5 μL of the serially diluted test compound solutions was added to 95 μL of fresh medium. 10 μL of the medium containing the compound above was added to the plate. The plate was incubated in an incubator for 3 days (37° C., 5% CO2). 50 μL of CellTiter-Glo reagent was added into each well of the 96-well cell culture plate. The plate was let stand for 5-10 min in the dark at room temperature. The chemiluminescence signals were read by a PHERAstar system, and the data were processed by GraphPad software.

[1] = Pharmacokinetic study in rats after intragastric administration; type: in vivo; settings: both sexes, Sprague-Dawley (SD), rat, plasma, po, 2 mg/kg; for Vd/F: read-out: Apparent volume of distribution Vz/F; for AUC: read-out: Area under curve AUC; for CL/F: read-out: Clearance CL/F; for half-life: read-out: Half life T1/2 (converted); for Cmax: read-out: Plasma concentration Cmax; for MRT: read-out: Retention time MRT
Description: The plasma concentration of the compounds of Examples 1, 2 and 3 in rats after intragastric administration were measured by LC/MS/MS. The pharmacokinetic performance in rats of the compounds disclosed herein was studied and their pharmacokinetic profile was evaluated.
The compounds of Examples 1, 2 and 3.
12 healthy adult SD rats (half male and half female; purchased from Vital River) were evenly divided into 3 groups of 4.
A certain amount of the compound was added to a mixed solvent containing 5% of DMSO, 5% of Tween 80 and 90% of normal saline to obtain a colorless and clear solution.
SD rats were intragastrically administered with the compounds after fasting overnight, at a dose of 2 mg/kg and a volume of 10.0 mL/kg.
Rats were intragastrically administered with the compounds of Examples 1, 2 and 3. 0.2 mL of blood was collected from the orbit pre-dose and at 0.25, 0.5, 1.0, 2.0, 4.0, 6.0, 8.0, 11.0 and 24.0 h post-does. The blood samples were transferred to EDTA-K2kk anticoagulation vacutainers, centrifuged at 4° C. and 11000 rpm for 5 min to separate plasma. The plasma samples were stored at −20° C. The mice were fed 2 h after administration.
The plasma concentration of the compounds in rats after intragastric administration was determined: 25 μL of rat plasma at each time point post-dose was mixed with 50 μL of internal standard and 175 μL of acetonitrile; the mixture was vortexed 5 min, and centrifuged for 10 min at 4000 rpm. 1 μL of supernatant was taken for LC/MS/MS analysis.

T1 sequence (Q13535 whole entry): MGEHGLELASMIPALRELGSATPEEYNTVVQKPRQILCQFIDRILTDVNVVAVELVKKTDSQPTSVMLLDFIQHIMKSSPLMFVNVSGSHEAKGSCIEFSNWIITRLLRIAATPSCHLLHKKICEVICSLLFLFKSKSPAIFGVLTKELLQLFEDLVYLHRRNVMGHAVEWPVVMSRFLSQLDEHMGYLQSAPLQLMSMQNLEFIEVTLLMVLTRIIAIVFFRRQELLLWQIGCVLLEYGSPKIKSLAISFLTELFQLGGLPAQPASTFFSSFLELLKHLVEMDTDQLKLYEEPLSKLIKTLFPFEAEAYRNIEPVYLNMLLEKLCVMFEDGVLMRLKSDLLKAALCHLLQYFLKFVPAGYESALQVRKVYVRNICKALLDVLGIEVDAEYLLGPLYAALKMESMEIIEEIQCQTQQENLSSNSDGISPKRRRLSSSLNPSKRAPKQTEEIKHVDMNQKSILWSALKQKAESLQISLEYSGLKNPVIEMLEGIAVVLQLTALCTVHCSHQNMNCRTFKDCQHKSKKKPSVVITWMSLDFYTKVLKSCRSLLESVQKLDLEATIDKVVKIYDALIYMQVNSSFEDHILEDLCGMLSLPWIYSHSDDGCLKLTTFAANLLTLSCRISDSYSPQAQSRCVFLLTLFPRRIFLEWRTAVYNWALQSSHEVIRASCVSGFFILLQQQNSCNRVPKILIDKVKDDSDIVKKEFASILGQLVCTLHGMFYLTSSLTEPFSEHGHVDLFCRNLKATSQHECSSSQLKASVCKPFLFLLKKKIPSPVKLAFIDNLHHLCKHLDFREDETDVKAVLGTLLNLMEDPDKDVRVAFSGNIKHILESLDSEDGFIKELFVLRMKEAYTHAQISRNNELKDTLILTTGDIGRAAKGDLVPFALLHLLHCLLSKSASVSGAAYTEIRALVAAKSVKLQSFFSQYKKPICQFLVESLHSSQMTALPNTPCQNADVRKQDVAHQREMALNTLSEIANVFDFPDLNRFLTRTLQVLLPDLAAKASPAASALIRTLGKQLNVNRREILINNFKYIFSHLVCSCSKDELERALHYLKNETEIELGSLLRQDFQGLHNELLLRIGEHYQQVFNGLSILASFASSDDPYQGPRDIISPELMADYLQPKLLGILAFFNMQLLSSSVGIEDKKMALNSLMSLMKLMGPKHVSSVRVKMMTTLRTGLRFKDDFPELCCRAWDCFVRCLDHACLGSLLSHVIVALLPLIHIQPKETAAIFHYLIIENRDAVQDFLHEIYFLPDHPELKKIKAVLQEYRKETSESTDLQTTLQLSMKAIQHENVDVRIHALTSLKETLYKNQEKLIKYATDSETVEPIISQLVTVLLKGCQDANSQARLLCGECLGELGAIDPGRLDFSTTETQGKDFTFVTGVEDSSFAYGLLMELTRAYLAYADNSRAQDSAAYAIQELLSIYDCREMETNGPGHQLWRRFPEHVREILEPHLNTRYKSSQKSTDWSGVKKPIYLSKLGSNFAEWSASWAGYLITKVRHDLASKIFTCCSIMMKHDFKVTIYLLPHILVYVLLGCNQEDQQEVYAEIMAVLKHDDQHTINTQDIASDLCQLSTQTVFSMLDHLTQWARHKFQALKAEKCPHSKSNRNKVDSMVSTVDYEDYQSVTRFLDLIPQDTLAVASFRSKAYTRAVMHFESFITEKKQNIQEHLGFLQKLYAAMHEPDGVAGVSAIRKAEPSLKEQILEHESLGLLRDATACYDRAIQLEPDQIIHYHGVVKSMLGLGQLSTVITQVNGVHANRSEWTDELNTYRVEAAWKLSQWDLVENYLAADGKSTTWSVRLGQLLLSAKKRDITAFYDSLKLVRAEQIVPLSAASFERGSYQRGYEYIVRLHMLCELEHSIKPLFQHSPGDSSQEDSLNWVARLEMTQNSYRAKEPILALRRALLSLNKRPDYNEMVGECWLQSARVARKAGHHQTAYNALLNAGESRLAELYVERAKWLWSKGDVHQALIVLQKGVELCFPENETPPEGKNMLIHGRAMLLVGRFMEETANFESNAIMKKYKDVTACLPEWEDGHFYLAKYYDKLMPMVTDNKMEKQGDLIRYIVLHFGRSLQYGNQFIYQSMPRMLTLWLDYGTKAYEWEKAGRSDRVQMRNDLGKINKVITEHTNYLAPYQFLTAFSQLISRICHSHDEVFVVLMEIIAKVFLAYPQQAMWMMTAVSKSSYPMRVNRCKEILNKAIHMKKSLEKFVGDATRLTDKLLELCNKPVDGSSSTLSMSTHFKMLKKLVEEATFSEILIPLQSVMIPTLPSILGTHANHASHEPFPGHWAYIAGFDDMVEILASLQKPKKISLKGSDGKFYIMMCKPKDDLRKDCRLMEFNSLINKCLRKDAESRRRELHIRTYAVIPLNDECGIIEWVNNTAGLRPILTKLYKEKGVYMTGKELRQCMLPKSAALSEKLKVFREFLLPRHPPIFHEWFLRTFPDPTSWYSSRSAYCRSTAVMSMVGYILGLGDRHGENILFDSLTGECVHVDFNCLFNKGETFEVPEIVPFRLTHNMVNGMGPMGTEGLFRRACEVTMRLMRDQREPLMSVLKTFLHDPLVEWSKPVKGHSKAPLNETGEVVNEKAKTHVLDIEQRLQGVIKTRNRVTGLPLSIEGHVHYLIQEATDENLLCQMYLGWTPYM
T1 sequence (Q8WXE1 whole entry partner): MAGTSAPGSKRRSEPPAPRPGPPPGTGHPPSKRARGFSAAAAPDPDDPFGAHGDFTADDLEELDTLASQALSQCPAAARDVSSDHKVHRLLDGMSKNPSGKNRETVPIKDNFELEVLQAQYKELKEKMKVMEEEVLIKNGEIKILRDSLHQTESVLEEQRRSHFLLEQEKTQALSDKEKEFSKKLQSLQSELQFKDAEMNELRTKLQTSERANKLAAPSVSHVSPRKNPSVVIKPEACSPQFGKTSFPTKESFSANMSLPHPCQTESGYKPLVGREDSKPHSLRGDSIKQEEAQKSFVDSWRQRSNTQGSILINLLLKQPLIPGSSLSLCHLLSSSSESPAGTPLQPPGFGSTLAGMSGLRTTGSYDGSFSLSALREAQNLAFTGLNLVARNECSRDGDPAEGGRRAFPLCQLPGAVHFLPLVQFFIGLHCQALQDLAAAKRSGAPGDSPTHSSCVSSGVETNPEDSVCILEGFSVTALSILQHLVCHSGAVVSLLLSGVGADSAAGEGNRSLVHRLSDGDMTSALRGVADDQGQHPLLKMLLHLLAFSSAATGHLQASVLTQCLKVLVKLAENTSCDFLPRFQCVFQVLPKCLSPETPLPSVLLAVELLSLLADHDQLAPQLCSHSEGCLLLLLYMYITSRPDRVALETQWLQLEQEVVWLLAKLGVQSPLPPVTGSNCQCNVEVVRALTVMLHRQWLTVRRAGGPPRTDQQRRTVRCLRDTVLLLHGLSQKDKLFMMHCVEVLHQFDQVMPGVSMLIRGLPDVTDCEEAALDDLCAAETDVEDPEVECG

IC50 (ATR enzyme) [nM]	Maximum inhibition (%) of ATR enzyme (ATR enzyme) [%]	IC50 (LoVo cells) [nM]	Vd/F [1] [L/kg]	AUC [1] [ng·h/mL]	CL/F [1] [mL/min/kg]	half-life [1] [h]	Cmax [1] [ng/mL]	MRT [1] [h]	Compound	Maximum inhibition (%) of LoVo cell proliferation (LoVo cells) [%]
9	100	75	7.8 ± 6.13	1590 ± 1390	51.7 ± 49.5	2.57 ± 1.39	309 ± 219	3.99 ± 2.26	C[C@@H]1COCCN1c1cc(C2(C#N)CC2)c2c(n1)c(-c1cc[nH]n1)nn2C [Example 2, (R)-1-(1-methyl-5-(3-methylmorpholinyl)-3-(1H-pyrazol-3-yl)-1H-pyrazolo[4,3-b]pyridin-7-yl)cyclopropanenitrile]	90
6	100	64							CCn1nc(-c2cc[nH]n2)c2nc(N3CCOC[C@H]3C)cc(C(C)(C)C#N)c21 [Example 4, (R)-2-(1-ethyl-5-(3-methylmorpholinyl)-3-(1H-pyrazol-3-yl)-1H-pyrazolo[4,3-b]pyridin-7-yl)-2-methylpropanenitrile]	89
15	100	124	2.44 ± 0.448	2710 ± 807	13.1 ± 3.7	2.23 ± 0.53	674 ± 86.7	3.26 ± 0.67	C[C@@H]1COCCN1c1cc(-c2ccnn2C)c2c(n1)c(-c1cc[nH]n1)nn2C [Example 3, (R)-3-methyl-4-(1-methyl-7-(1-methyl-1H-pyrazol-5-yl)-3-(1H-pyrazol-3-yl)-1H-pyrazolo[4,3-b]pyridin-5-yl) morpholine]	87
8	100	100							CCn1nc(-c2cc[nH]n2)c2nc(N3CCOC[C@H]3C)cc(C3(C#N)CC3)c21 [Example 5, (R)-1-(1-ethyl-5-(3-methylmorpholinyl)-3-(1H-pyrazol-3-yl)-1H-pyrazolo[4,3-b]pyridin-7-yl) cyclopropanenitrile]	93
3	100	55							C[C@@H]1COCCN1c1cc(C(C)(C)C#N)c2[nH]nc(-c3cc[nH]n3)c2n1 [Example 6, (R)-2-methyl-2-(5-(3-methylmorpholinyl)-3-(1H-pyrazol-3-yl)-1H-pyrazolo[4,3-b]pyridin-7-yl)propanenitrile]	95
73	97	316							C[C@@H]1COCCN1c1cc(C(C)(C)O)c2c(n1)c(-c1cc[nH]n1)nn2C [Comparative Example 1, (R)-2-(1-methyl-5-(3-methylmorpholinyl)-3-(1H-pyrazol-3-yl)-1H-pyrazolo[4,3-b]pyridin-7-yl)propan-2-ol, reference compound]	92
		43							C[C@@H]1COCCN1c1cc(C(C)(C)C#N)c2c(n1)c(-c1cc[nH]n1)nn2C [Example 1, (R)-2-methyl-2-(1-methyl-5-(3-methylmorpholinyl)-3-(1H-pyrazol-3-yl)-1H-pyrazolo[4,3-b]pyridin-7-yl)propanenitrile]	
